pEC50: −log10 of the molar value.
Target: human D1 receptor (Homo sapiens (Human), UniProt P21728)
Assay: Human D1 Receptor PAM Assay (cAMP HTRF, potentiator mode)
Type: cell-based
Settings: for pEC50: HEK293 cells expressing human D1, with EC20 dopamine (12 nM final), cAMP, read-out: Abs EC50; for % Top (% Potentiation): fitted top, 0% = EC20 dopamine alone, 100% = 5 μM dopamine
Excerpt: The PAM activity of the compounds of the present invention may be measured essentially as described in Svensson et al., An Allosteric Potentiator of the Dopamine D1 Receptor Increases Locomotor Activity in Human D1 Knock-in Mices without Casusing Stereotypy or Tachyphylaxis. J. Pharmacol. Exp. Ther. (2017) 360:117-128.
More specifically, HEK293 cells that stably express the human D1 receptor (Accession number NM_000794) are generated by gene transduction using the pBABE-bleo retroviral vector and selected with Zeocin™ (InvivoGen). At approximately 80% confluency, the cells are harvested using TrypLE™ Express (Gibco), suspended in FBS plus 8% DMSO, and stored in liquid nitrogen. On the day of the assay, cells are thawed and resuspended in STIM buffer (Hanks Balanced Salt Solution supplemented with 0.1% BSA, 20 mM HEPES, 500 μM IBMX, and 100 μM ascorbic acid).
Test compound is serially diluted (1:2) with DMSO into assay plates (ProxiPlate-384 Plus, PerkinElmer) using acoustic dispensing (Labcyte) to provide 20 concentrations for full response curves. Test compound (80 nL) is added to 5 μL STIM buffer containing 2000 cells, and 5 μL of a 2×concentration dopamine solution in STIM buffer that will generate an EC20 level response (24 nM in stock solution, or 12 nM final) and a final DMSO concentration in the well of 0.8%. Plates are incubated at room temperature for a total reaction time of 60 min.
cAMP production is quantified using HTRF® detection (Cisbio) according to the manufacturer's instructions. Generally, lysis buffer containing anti-cAMP cryptate (5 μL) and D2-conjugate (from HTRF® kit)(5 μL) is added to the wells, plates are incubated for an additional 60-90 min, and the time-resolved fluorescence is detected using an EnVision™ plate reader (PerkinElmer). Fluorescence data is converted to cAMP concentrations using a cAMP standard curve and analyzing using a 4-parameter non-linear logistic equation (Genedata Screener, version 13.0.5-standard). For potentiator mode concentration-response curves, results are expressed as percent of the window between a response at EC20 concentration of dopamine alone (normalized to 0%) and the maximum response to dopamine (defined by response to 5 μM dopamine, final concentration, normalized as 100%). Absolute EC50 values are calculated based on the maximum and minimum responses of the control agonist (dopamine). The % Potentiation (% Top) is determined from the fitted top of the concentration response curve.

Sequence of human D1 receptor (P21728 whole entry): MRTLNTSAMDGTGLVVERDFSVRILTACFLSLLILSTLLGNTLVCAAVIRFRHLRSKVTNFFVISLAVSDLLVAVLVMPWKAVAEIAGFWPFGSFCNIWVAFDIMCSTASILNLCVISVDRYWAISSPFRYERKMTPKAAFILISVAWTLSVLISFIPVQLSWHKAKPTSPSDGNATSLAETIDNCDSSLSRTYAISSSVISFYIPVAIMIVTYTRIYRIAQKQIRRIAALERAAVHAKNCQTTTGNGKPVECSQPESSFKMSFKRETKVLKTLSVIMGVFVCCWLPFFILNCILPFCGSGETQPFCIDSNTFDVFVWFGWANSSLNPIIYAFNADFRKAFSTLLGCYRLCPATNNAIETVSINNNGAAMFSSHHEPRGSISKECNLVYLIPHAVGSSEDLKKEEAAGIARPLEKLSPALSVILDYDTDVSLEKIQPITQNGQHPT

Compound	pEC50	% Top (% Potentiation) [%]
2-(2,6-Dichlorophenyl)-1-[(1S,3R)-5-[4,4-difluoro-3-hydroxy-3-methyl-butyl]-3-(hydroxymethyl)-1-methyl-3,4-dihydro-1H-isoquinolin-2-yl]ethenone [Example 6]	7.90	97.0
C[C@H]1c2cccc([C@@H]3C[C@H]3C(C)(C)O)c2C[C@H](CO)N1C(=O)Cc1c(Cl)cccc1Cl (relative stereo) [Example 1, 2-(2,6-Dichlorophenyl)-1-[(1S,3R)-3-(hydroxymethyl)-5-[trans-2-(1-hydroxy-1-methyl-ethyl)cyclopropyl]-1-methyl-3,4-dihydro-1H-isoquinolin-2-yl]ethenone]	7.92	94.2
C[C@H]1c2cccc([C@@H]3C[C@@H]3C(C)(C)O)c2C[C@H](CO)N1C(=O)Cc1c(Cl)cccc1Cl (relative stereo) [Example 4, 2-(2,6-Dichlorophenyl)-1-[(1S,3R)-3-(hydroxymethyl)-5-[cis-2-(1-hydroxy-1-methyl-ethyl)cyclopropyl]-1-methyl-3,4-dihydro-1H-isoquinolin-2-yl]ethenone]	7.06	93.2
C[C@@H]1c2ccc(F)c([C@@H]3C[C@H]3C(C)(C)O)c2C[C@H](CO)N1C(=O)Cc1c(F)cccc1Cl (relative stereo) [Example 8, 2-(2-chloro-6-fluoro-phenyl)-1-[(1R,3R)-6-fluoro-3-(hydroxymethyl)-5-[trans-2-(1-hydroxy-1-methyl-ethyl)cyclopropyl]-1-methyl-3,4-dihydro-1H-isoquinolin-2-yl]ethenone]	7.47	78.9
C[C@@H]1c2ccc(F)c([C@@H]3C[C@H]3C(C)(C)O)c2C[C@H](CO)N1C(=O)Cc1c(F)cccc1Cl (relative stereo) [Example 9, 2-(2-chloro-6-fluoro-phenyl)-1-[(1R,3R)-6-fluoro-3-(hydroxymethyl)-5-[trans-2-(1-hydroxy-1-methyl-ethyl)cyclopropyl]-1-methyl-3,4-dihydro-1H-isoquinolin-2-yl]ethenone]	7.88	82.0
C[C@H]1c2ccc(F)c([C@@H]3C[C@H]3C(C)(C)O)c2C[C@H](CO)N1C(=O)Cc1c(Cl)cccc1Cl (relative stereo) [Example 10, 2-(2,6-dichlorophenyl)-1-[(1S,3R)-6-fluoro-3-(hydroxymethyl)-5-[trans-(1-hydroxy-1-methyl-ethyl)cyclopropyl]-1-methyl-3,4-dihydro-1H-isoquinolin-2-yl]ethenone]	7.91	86.9

Compounds with a higher pEC50, results first:

pEC50	% Top (% Potentiation) [%]	Compound
7.95	91.9	C[C@H]1c2cccc([C@@H]3C[C@@H]3C(C)(C)O)c2C[C@H](CO)N1C(=O)Cc1c(Cl)cccc1Cl (relative stereo) [Example 3, 2-(2,6-Dichlorophenyl)-1-[(1S,3R)-3-(hydroxymethyl)-5-[cis-2-(1-hydroxy-1-methyl-ethyl)cyclopropyl]-1-methyl-3,4-dihydro-1H-isoquinolin-2-yl]ethenone]
8.08	96.4	C[C@H]1c2cccc([C@@H]3C[C@H]3C(C)(C)O)c2C[C@H](CO)N1C(=O)Cc1c(Cl)cccc1Cl (relative stereo) [Example 2, 2-(2,6-Dichlorophenyl)-1-[(1S,3R)-3-(hydroxymethyl)-5-[trans-2-(1-hydroxy-1-methyl-ethyl)cyclopropyl]-1-methyl-3,4-dihydro-1H-isoquinolin-2-yl]ethenone]
8.10	101	2-(2,6-Dichlorophenyl)-1-[(1S,3R)-5-[4,4-difluoro-3-hydroxy-3-methyl-butyl]-3-(hydroxymethyl)-1-methyl-3,4-dihydro-1H-isoquinolin-2-yl]ethenone [Example 5]
8.28	92.7	C[C@H]1c2ccc(F)c([C@@H]3C[C@H]3C(C)(C)O)c2C[C@H](CO)N1C(=O)Cc1c(Cl)cccc1Cl (relative stereo) [Example 11, 2-(2,6-dichlorophenyl)-1-[(1S,3R)-6-fluoro-3-(hydroxymethyl)-5-[trans-(1-hydroxy-1-methyl-ethyl)cyclopropyl]-1-methyl-3,4-dihydro-1H-isoquinolin-2-yl]ethenone]
